Experiments:
[1] = target: T1, Brd4 bromodomain 1 (BRD4(1)) (Homo sapiens, UniProt O60885); experiment: Inhibition of tetra-acetylated histone H4 binding to Brd4 bromodomain 1 (TR-FRET); details: tetra-acetylated histone H4 peptide, first bromodomain of Brd4
T1 construct: made in house; host or cells: E. coli BL21(DE3)
Procedure: Proteins were cloned and overexpressed with a N-terminal 6× His tag, then purified by nickel affinity followed by size exclusion chromatography. Briefly, E.coli BL21(DE3) cells were transformed with a recombinant expression vector encoding N-terminally Nickel affinity tagged bromodomains from Brd2, Brd3, Brd4. Cell cultures were incubated at 37° C. with shaking to the appropriate density and induced overnight with IPTG. The supernatant of lysed cells was loaded onto Ni-IDA column for purification. Eluted protein was pooled, concentrated and further purified by size exclusion chromatography. Fractions representing monomeric protein were pooled, concentrated, aliquoted, and frozen at −80° C. for use in subsequent experiments.
Binding of tetra-acetylated histone H4 and BET bromodomains was confirmed by a Time Resolved Fluorescence Resonance Energy Transfer (TR-FRET) method. N-terminally His-tagged bromodomains (200 nM) and biotinylated tetra-acetylated histone H4 peptide (25-50 nM, Millipore) were incubated in the presence of Europium Cryptate-labeled streptavidin (Cisbio Cat. #610SAKLB) and XL665-labeled monoclonal anti-His antibody (Cisbio Cat. #61HISXLB) in a white 96 well microtiter plate (Greiner). For inhibition assays, serially diluted test compound was added to these reactions in a 0.2% final concentration of DMSO. Final buffer concentrations were 30 mM HEPES pH 7.4, 30 mM NaCl, 0.3 mM CHAPS, 20 mM phosphate pH 7.0, 320 mM KF, 0.08% BSA). After a 2-h incubation at room temperature, the fluorescence by FRET was measured at 665 and 620 nm by a SynergyH4 plate reader (Biotek). The binding inhibitory activity was shown by a decrease in 665 nm fluorescence relative to 620 nm. IC50 values were determined from a dose response curve.

[2] = test system: c-myc; experiment: Inhibition of c-myc expression (mRNA, real-time PCR) in MV4-11 cells; format: cell-based; details: Human AML MV4-11 cells, 3 h, cMYC mRNA
Procedure: MV4-11 cells (CRL-9591) were plated at a density of 2.5×10^4 cells per well in 96 well U-bottom plates and treated with increasing concentrations of test compound or DMSO (0.1%) in IMDM media containing 10% FBS and penicillin/streptomycin, and incubated for 3 h at 37° C. Triplicate wells were used for each concentration. Cells were pelleted by centrifugation and harvested using the mRNA Catcher PLUS kit according to manufacturer's instructions. The eluted mRNA isolated was then used in a one-step quantitative real-time PCR reaction, using components of the RNA UltraSense™ One-Step Kit (Life Technologies) together with Applied Biosystems TaqMan® primer-probes for cMYC and Cyclophilin. Real-time PCR plates were run on a VIaTM7 real time PCR machine (Applied Biosystems), data was analyzed, normalizing the Ct values for cMYC to an internal control, prior to determining the fold expression of each sample, relative to the control.

[3] = test system: human AML MV-4-11 cells; experiment: Inhibition of cell proliferation in MV4-11 cells (CellTiter Aqueous One); format: cell-based; details: for IC50: MV4-11, 72 h; for Cell Proliferation activity: 72 h
Procedure: MV4-11 cells: 96-well plates were seeded with 5×10^4 cells per well of exponentially growing human AML MV-4-11 (CRL-9591) cells and immediately treated with two-fold dilutions of test compounds, ranging from 30 μM to 0.2 μM. Triplicate wells were used for each concentration, as well as a media only and three DMSO control wells. The cells and compounds were incubated at 37° C., 5% CO2 for 72 h before adding 20 μL of the CellTiter Aqueous One Solution (Promega) to each well and incubating at 37° C., 5% CO2 for an additional 3-4 h. The absorbance was taken at 490 nm in a spectrophotometer and the percentage of proliferation relative to DMSO-treated cells was calculated after correction from the blank well. IC50 were calculated using the GraphPad Prism software.

Cc1noc(C)c1-c1ccc2c(c1)N(Cc1ccccc1)[C@H](C)C(=O)N2 [compound 174, (R)-4-benzyl-6-(3,5-dimethylisoxazol-4-yl)-3-methyl-3,4-dihydroquinoxalin-2(1H)-one]
IC50 [1]: ≤ 300 nM
IC50 [2]: 300 to 3000 nM
IC50 [3]: 300 to 3000 nM

Cc1noc(C)c1-c1cc(N)c2[nH]c(=S)n(Cc3ccccc3)c2c1 [compound 177, 4-amino-1-benzyl-6-(3,5-dimethylisoxazol-4-yl)-1H-benzo[d]imidazole-2(3H)-thione]
IC50 [1]: 300 to 3000 nM
IC50 [2]: ≤ 300 nM
IC50 [3]: ≤ 300 nM

Cc1noc(C)c1-c1cnc2nc(NC3CCOCC3)n(Cc3ccccc3)c2c1 [compound 170, 1-benzyl-6-(3,5-dimethylisoxazol-4-yl)-N-(tetrahydro-2H-pyran-4-yl)-1H-imidazo[4,5-b]pyridin-2-amine]
IC50 [1]: ≤ 300 nM
IC50 [2]: ≤ 300 nM
IC50 [3]: ≤ 300 nM

Cc1noc(C)c1-c1cc(Br)c2nc(C)n(CCc3ccccc3)c2c1 [compound 186, 4-(4-bromo-2-methyl-1-phenethyl-1H-benzo[d]imidazol-6-yl)-3,5-dimethylisoxazole]
IC50 [1]: ≤ 300 nM
IC50 [2]: 3000 to 30000 nM
Cell Proliferation activity [3]: Not active

Cc1noc(C)c1-c1cnc2nc(C3CC3)n(Cc3ccccc3)c2c1 [compound 138, 4-(1-benzyl-2-cyclopropyl-1H-imidazo[4,5-b]pyridin-6-yl)-3,5-dimethylisoxazole]
IC50 [1]: ≤ 300 nM
IC50 [2]: ≤ 300 nM
IC50 [3]: 300 to 3000 nM

CCNc1nc2c(N)cc(-c3c(C)noc3C)cc2n1CC1CC1 [compound 160, 1-(cyclopropylmethyl)-6-(3,5-dimethylisoxazol-4-yl)-N2-ethyl-1H-benzo[d]imidazole-2,4-diamine]
IC50 [1]: ≤ 300 nM
IC50 [2]: 300 to 3000 nM
IC50 [3]: 300 to 3000 nM

Cc1noc(C)c1-c1cnc2nc(N3CCNCC3)n(Cc3ccccc3)c2c1 [compound 213, 4-(1-benzyl-2-(piperazin-1-yl)-1H-imidazo[4,5-b]pyridin-6-yl)-3,5-dimethylisoxazole]
IC50 [1]: ≤ 300 nM
IC50 [2]: 300 to 3000 nM
IC50 [3]: 300 to 3000 nM

Cn1nccc1-c1cc([N+](=O)[O-])c2c(c1)n(Cc1ccccc1)c(=O)n2C [compound 198, 1-benzyl-3-methyl-6-(1-methyl-1H-pyrazol-5-yl)-4-nitro-1H-benzo[d]imidazol-2(3H)-one]
IC50 [1]: ≤ 300 nM
IC50 [2]: 3000 to 30000 nM
IC50 [3]: 3000 to 30000 nM

Cc1noc(C)c1-c1cnc2nc(NCc3ccncc3)n(Cc3ccccc3)c2c1 [compound 169, 1-benzyl-6-(3,5-dimethylisoxazol-4-yl)-N-(pyridin-4-ylmethyl)-1H-imidazo[4,5-b]pyridin-2-amine]
IC50 [1]: ≤ 300 nM
IC50 [2]: ≤ 300 nM
IC50 [3]: ≤ 300 nM

Cc1noc(C)c1-c1cc([N+](=O)[O-])c2[nH]c(=O)n(C(C)c3ccccc3)c2c1 (stereo not drawn) [compound 110, 6-(3,5-dimethylisoxazol-4-yl)-4-nitro-1-(1-phenylethyl)-1H-benzo[d]imidazol-2(3H)-one]
IC50 [1]: ≤ 300 nM
IC50 [2]: 300 to 3000 nM
IC50 [3]: 300 to 3000 nM

CCOc1nc2ncc(-c3c(C)noc3C)cc2n1Cc1ccccc1 [Example Compound 59, 4-(1-benzyl-2-ethoxy-1H-imidazo[4,5-b]pyridin-6-yl)-3,5-dimethylisoxazole]
IC50 [1]: 300 to 3000 nM
Cell Proliferation activity [3]: Not active

CC(=O)Oc1nc2ncn(Cc3ccc(F)cc3)c2cc1-c1c(C)noc1C [compound 80, 6-(3,5-dimethylisoxazol-4-yl)-1-(4-fluorobenzyl)-1H-imidazo[4,5-b]pyridin-5-yl acetate]
IC50 [1]: 300 to 3000 nM
Cell Proliferation activity [3]: Not active

Cc1noc(C)c1-c1cnc2nc(NCc3cccnc3)n(Cc3ccccc3)c2c1 [compound 185, 1-benzyl-6-(3,5-dimethylisoxazol-4-yl)-N-(pyridin-3-ylmethyl)-1H-imidazo[4,5-b]pyridin-2-amine]
IC50 [1]: ≤ 300 nM
IC50 [2]: ≤ 300 nM
IC50 [3]: ≤ 300 nM

COc1ccc(Cn2c(=O)[nH]c3c(N)cc(-c4c(C)noc4C)cc32)cc1 [compound 104, 4-amino-6-(3,5-dimethylisoxazol-4-yl)-1-(4-methoxybenzyl)-1H-benzo[d]imidazol-2(3H)-one]
IC50 [1]: ≤ 300 nM
IC50 [2]: 300 to 3000 nM
IC50 [3]: 300 to 3000 nM

Cc1noc(C)c1-c1cc([N+](=O)[O-])c2[nH]c(=O)n([C@@H](C)c3ccccc3)c2c1 [compound 172, (S)-6-(3,5-dimethylisoxazol-4-yl)-4-nitro-1-(1-phenylethyl)-1H-benzo[d]imidazol-2(3H)-one]
IC50 [1]: ≤ 300 nM
IC50 [2]: ≤ 300 nM
IC50 [3]: 300 to 3000 nM

Cc1noc(C)c1Nc1cc(N)c2nc(C)n(Cc3ccccc3)c2c1 [compound 142, 1-benzyl-N6-(3,5-dimethylisoxazol-4-yl)-2-methyl-1H-benzo[d]imidazole-4,6-diamine]
IC50 [1]: 300 to 3000 nM
IC50 [2]: 300 to 3000 nM
IC50 [3]: 3000 to 30000 nM

Cc1noc(C)c1-c1cnc2nc(NCc3ccccn3)n(Cc3ccccc3)c2c1 [compound 194, 1-benzyl-6-(3,5-dimethylisoxazol-4-yl)-N-(pyridin-2-ylmethyl)-1H-imidazo[4,5-b]pyridin-2-amine]
IC50 [1]: ≤ 300 nM
IC50 [2]: ≤ 300 nM
IC50 [3]: ≤ 300 nM

Cc1noc(C)c1-c1ccc2[nH]cc(Nc3cccc(C#N)c3)c2n1 [Example Compound 57, 3-((5-(3,5-dimethylisoxazol-4-yl)-1H-pyrrolo[3,2-b]pyridin-3-yl)amino)benzonitrile]
IC50 [1]: 3000 to 30000 nM
IC50 [3]: 3000 to 30000 nM

Cc1noc(C)c1-c1cc2c(ncn2Cc2ccc(F)cc2)[n+]([O-])c1 [compound 79, 6-(3,5-dimethylisoxazol-4-yl)-1-(4-fluorobenzyl)-1H-imidazo[4,5-b]pyridine 4-oxide]
Cell Proliferation activity [3]: Not active

Cc1noc(C)c1-c1cnc2ncn(Cc3ccccn3)c2c1 [Example Compound 47, 3,5-dimethyl-4-(1-(pyridin-2-ylmethyl)-1H-imidazo[4,5-b]pyridin-6-yl)isoxazole]
IC50 [1]: 3000 to 30000 nM
Cell Proliferation activity [3]: Not active

COC(=O)c1cc(-c2c(C)noc2C)cc2c1[nH]c(=O)n2Cc1ccccc1 [Example Compound 20, methyl 1-benzyl-6-(3,5-dimethylisoxazol-4-yl)-2-oxo-2,3-dihydro-1H-benzo[d]imidazole-4-carboxylate]
IC50 [1]: ≤ 300 nM
Cell Proliferation activity [3]: Not active

Cc1noc(C)c1-c1cc2c([nH]c1=O)c(C)nn2Cc1ccc(F)cc1 [Example Compound 25, 6-(3,5-dimethylisoxazol-4-yl)-1-(4-fluorobenzyl)-3-methyl-1H-pyrazolo[4,3-b]pyridin-5(4H)-one]
IC50 [1]: 3000 to 30000 nM
Cell Proliferation activity [3]: Not active

Cc1noc(C)c1-c1cc(N)c2[nH]c(=O)n(CC3CC3)c2c1 [compound 161, 4-amino-1-(cyclopropylmethyl)-6-(3,5-dimethylisoxazol-4-yl)-1H-benzo[d]imidazol-2(3H)-one]
IC50 [1]: ≤ 300 nM
IC50 [3]: 300 to 3000 nM

CCNc1nc2ncc(-c3c(C)noc3C)cc2n1Cc1ccccc1 [compound 107, 1-benzyl-6-(3,5-dimethylisoxazol-4-yl)-N-ethyl-1H-imidazo[4,5-b]pyridin-2-amine]
IC50 [1]: ≤ 300 nM
IC50 [3]: 300 to 3000 nM

Cc1nc2ncc(-c3cnnn3C)cc2n1Cc1ccccc1 [compound 206, 1-benzyl-2-methyl-6-(1-methyl-1H-1,2,3-triazol-5-yl)-1H-imidazo[4,5-b]pyridine]
IC50 [1]: ≤ 300 nM
IC50 [3]: 3000 to 30000 nM

Cc1noc(C)c1-c1cc(Br)c2nc(C)n(C(=O)c3ccccc3)c2c1 [compound 200, (4-bromo-6-(3,5-dimethylisoxazol-4-yl)-2-methyl-1H-benzo[d]imidazol-1-yl)(phenyl)methanone]
IC50 [1]: 300 to 3000 nM
Cell Proliferation activity [3]: Not active

— US10363257B2 (ZENITH EPIGENETICS LTD., priority 2013, dated 2019)
